Results from patent US12318452B2, “Degraders of WEE1 kinase” (DANA-FARBER CANCER INSTITUTE, INC., priority 2018, dated 2025).

What was measured:
PLK1 = PLK1 (Homo sapiens, UniProt P53350); assay: Z′-LYTE kinase activity assay for PLK1; format: biochemical; parameters: purchased Life Technologies (Invitrogen) commercial assay service; conditions: Km ATP, average of two replicates ± SD
Description: LanthaScreen™ assays were conducted for Wee1 in a 10-point dose response as performed in the commercial assay service by Life Technologies™. Z′-LYTE™ assays were conducted for PLK1 as performed in the commercial assay service by Life Technologies™ in a 10-point dose response using Km ATP concentrations.
The selectivity of Wee1 degradation was then assessed by performing multiplexed mass spectrometry (MS)-based proteomics in MOLT4 cells treated with 100 nM of compound 13 for 2 hours (Donovan et al., Elife 7:e38430 (2018)).

Wee1 [1] = molecular target: T1, Wee1 (Homo sapiens, UniProt P30291); assay: Cellular degradation of Wee1 by immunoblot, 6-hour treatment of MOLT4 cells; format: cell-based; parameters: endogenous in cells; host or cells: MOLT4 (wild type; CRBN-/- as control); conditions: for Wee1 degradation / percent Wee1 degradation at 1 µM: MOLT4 cells; for Wee1 degradation: immunoblot; for percent Wee1 degradation at 1 µM: MOLT-4, 1 μM, approximated by immunoblot, read-out: Extent of Degradation of Wee1
T1 sequence (P30291 whole entry): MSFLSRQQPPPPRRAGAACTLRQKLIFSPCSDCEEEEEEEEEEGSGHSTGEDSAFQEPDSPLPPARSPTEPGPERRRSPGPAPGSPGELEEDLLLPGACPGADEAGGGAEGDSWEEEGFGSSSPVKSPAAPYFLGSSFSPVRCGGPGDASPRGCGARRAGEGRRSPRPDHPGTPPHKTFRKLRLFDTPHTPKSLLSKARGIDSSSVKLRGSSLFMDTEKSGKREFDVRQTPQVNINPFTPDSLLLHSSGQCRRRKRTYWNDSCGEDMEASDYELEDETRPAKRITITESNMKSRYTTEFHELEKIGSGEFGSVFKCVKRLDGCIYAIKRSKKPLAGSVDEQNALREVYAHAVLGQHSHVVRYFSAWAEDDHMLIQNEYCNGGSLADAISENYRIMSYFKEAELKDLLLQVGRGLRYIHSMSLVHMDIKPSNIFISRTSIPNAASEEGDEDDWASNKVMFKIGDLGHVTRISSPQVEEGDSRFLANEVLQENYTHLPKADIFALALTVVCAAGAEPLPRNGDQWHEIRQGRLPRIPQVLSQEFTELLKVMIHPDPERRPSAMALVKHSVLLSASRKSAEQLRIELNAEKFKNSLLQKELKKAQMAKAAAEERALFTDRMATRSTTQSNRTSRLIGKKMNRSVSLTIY
Description: General Protocol: HT-29, MOLT4 wild type (WT) or CRBN^-/- cells were plated in a 6 well plate and treated for 6 hours with the indicated concentrations of the inventive compounds and control. HT-29 cells were cultured in McCoy's Media supplemented with 10% FBS and 1% Penicillin/Streptomycin. MOLT4 WT and CRBN^-/- cells were cultured in Roswell Park Memorial Institute (RPMI) medium supplemented with 10% FBS and 1% Penicillin/Streptomycin. Mycoplasma testing was performed every month and all lines were negative. Immunoblotting: Cells were washed with phosphate-buffered saline (PBS) and then lysed using radioimmunoprecipitation assay (RIPA) buffer supplemented with protease and phosphatase inhibitor cocktail (Roche) on ice for 15 minutes. The lysates were centrifuged at 14,000 rpm for 15 minutes at 4° C. and protein was quantified by bicinchoninic acid (BCA) assay (PierceTM). Primary antibodies used include: Wee1 ([…]) (Cell Signaling Technology®, 13084S), polo-like kinase 1 (PLK1) (Thermo Fisher Scientific, 37-7000), phosphor-cdc2 (Y15) (10A11) (Cell Signaling Technology®, […]), phospho-histone H3 ([…]) (Cell Signaling Technology®, […]), Ikaros ([…]) (Cell Signaling Technology®, 14859S), Aiolos ([…]) (Cell Signaling Technology®, 15103), casein kinase 1 alpha (Abcam®, 108296), β-actin (Cell Signaling Technology®, 8H10D10). FIG. 2A is an immunoblot showing that compound 13 degraded Wee1 after a 6-hour treatment in MOLT4 cells, and induced the downstream changes expected from Wee1 loss-including a decrease in phosphorylated cyclin-dependent kinase 1 (pCDK1) (Y15) and an increase in pH 3. […] Degradation of Wee1 by compound 13 was rescued in MOLT4 CRBN^-/- cells. MOLT4 WT and CRBN^-/- cells were plated in a 6-well plate at 2.25 million cells per well in 3 mL media (RPMI+10% FBS+1% Penn/Strep). After treatment with the indicated concentrations of candidate compounds, cells were incubated for 6 hours at 37° C. 5% CO2. To harvest, the cells were washed 1× with cold PBS, then collected by centrifugation. Cell pellets were lysed in RIPA buffer with protease and phosphatase inhibitors (Roche). Lysates were clarified by centrifugation, and protein concentrations were normalized using a BCA assay (Thermo ScientificTM). The samples were diluted with 4×LDS+10% β-mercaptoethanol, and were boiled at 95° C. for 5 minutes. Proteins of interest were then assessed by western blotting. […] The experimental protocol was the same as in Example 28.

Wee1 [2] = molecular target: T1, Wee1; assay: Wee1 degradation immunoblot in MOLT4 cells, 5-hr dose response and time course; format: cell-based; parameters: endogenous in cells; host or cells: MOLT4 (wild type; CRBN-/- as control); conditions: for Wee1 degradation: 5-hr exposure, 100 nM-10 μM
Description: Whole cell lysates for immunoblotting were prepared by pelleting cells from each cell line at 4° C. (300 g) for 5 minutes. The resulting cell pellets were washed 1× with ice-cold PBS and then resuspended in RIPA lysis buffer (Sigma, cat #R0278) supplemented with protease and phosphatase inhibitor tablets (Roche cat #4906845001). Lysates were clarified at 14,000 rpm for 15 minutes at 4° C. prior to quantification by BCA assay (Pierce™, cat #23225). Whole cell lysates were loaded into Bolt 4-12% Bis-Tris Gels (Thermo Fisher, cat #NW04120BOX) and separated by electrophoreses at 95 V for 1.5 hours. The gels were transferred to a nitrocellulose membrane using the iBlot® Gel Transfer at P3 for 7 minutes (Thermo Fisher, cat #IB23001) and then blocked for 1 hour at room temperature in Odyssey® blocking buffer (LICOR® Biosciences, cat #927-50010). Membranes were probed using antibodies against the relevant proteins at 4° C. overnight in 20% Odyssey® Blocking Buffer in 1×TBST. Membranes were then washed three times with 1×TBST (at least 5 minutes per wash) followed by incubation with the IRDye® goat anti-mouse (LICOR®, cat #926-32210) or goat anti-rabbit (LICOR®, cat #926-32211) secondary antibody (diluted 1:10,000) in 20% Odyssey® Blocking Buffer in 1×TBST for 1 hour at room temperature. After three washes with 1×TBST (at least 5 minutes per wash), the immunoblots were visualized using the ODYSSEY® Infrared Imaging System (LICOR®).
MOLT4 cells were plated at 1.5 million cells per well in a 6-well plate, with 3 mL of media per well. Cells were then immediately treated with the indicated concentration of the indicated compound and incubated for the indicated amount of time. Cells were collected by transferring each well to a 15 mL conical, centrifuging (1000 rpm for 3 min), then washing the cell pellet 2× with cold PBS. Each cell pellet was then lysed in 100 μL of RIPA lysis buffer (+protease/phosphatase inhibitors). Samples were normalized and prepped in 4×LDS+10% β-mercaptoethanol and boiled for 5 min at 95° C. Lysates were probed for specified proteins by western blotting using the Bolt® system (Life Technologies™)
To confirm that compound 13-mediated Wee1 degradation is CRBN dependent (FIG. 1D), Wee1 degradation profiles in parental versus CRBN^−/− MOLT4 cells were compared. In parental MOLT4 cells, compound 13 induced potent Wee1 degradation after 5 hours, with maximal degradation observed at 100 nM and a “hook effect” apparent at the top concentration of 10 μM, where compound 13:CRBN and compound 13-Wee1 binary complexes inhibit the formation of a productive ternary complex (Toure and Crews, Angew. Chem. 55:1966-1973 (2016)).
To evaluate the kinetics of Wee1 degradation, a time course study was performed in MOLT4 cells using 100 nM compound 13. Degradation occurred rapidly, with over 50% degradation achieved within 30 min, and complete degradation reached by 3 hr (FIG. 4C).

[3] = 100 nM, MOLT4 cells, time course

PLK1, sequence (P53350 whole entry): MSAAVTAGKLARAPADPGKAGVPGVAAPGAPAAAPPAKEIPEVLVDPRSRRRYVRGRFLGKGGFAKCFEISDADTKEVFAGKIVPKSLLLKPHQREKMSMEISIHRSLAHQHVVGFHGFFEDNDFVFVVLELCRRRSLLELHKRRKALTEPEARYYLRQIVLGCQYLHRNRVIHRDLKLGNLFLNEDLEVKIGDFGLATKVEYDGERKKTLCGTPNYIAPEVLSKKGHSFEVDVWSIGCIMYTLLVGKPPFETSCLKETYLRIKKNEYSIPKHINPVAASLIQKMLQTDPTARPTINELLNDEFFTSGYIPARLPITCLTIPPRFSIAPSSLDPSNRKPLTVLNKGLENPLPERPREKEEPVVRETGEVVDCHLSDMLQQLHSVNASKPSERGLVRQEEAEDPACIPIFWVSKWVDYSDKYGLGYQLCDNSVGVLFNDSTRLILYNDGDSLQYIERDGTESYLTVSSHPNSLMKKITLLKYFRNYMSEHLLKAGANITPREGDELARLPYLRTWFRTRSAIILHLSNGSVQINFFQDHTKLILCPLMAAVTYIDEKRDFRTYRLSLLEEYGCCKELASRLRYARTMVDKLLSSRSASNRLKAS

SMILES: C=CCn1c(=O)c2cnc(Nc3ccc(N4CCN(CCCNc5cccc6c5C(=O)N(C5CCC(=O)N(C)C5=O)C6=O)CC4)cc3)nc2n1-c1cccc(C(C)(C)O)n1 (stereo not shown) [Compound 20, 4-((3-(4-(4-((2-allyl-1-(6-(2-hydroxypropan-2-yl)pyridin-2-yl)-3-oxo-2,3-dihydro-1H-pyrazolo[3,4-d]pyrimidin-6-yl)amino)phenyl)piperazin-1-yl)propyl)amino)-2-(1-methyl-2,6-dioxopiperidin-3-yl)isoindoline-1,3-dione]
- IC50 (PLK1): 43 ± 4 nM
- Wee1 degradation (Wee1 [1]): did not degrade Wee1
- percent Wee1 degradation at 1 µM (Wee1 [1]): < 25%
- Effect on Wee1 protein levels over time (Wee1 [2]; [3]): no effect on Wee1 protein levels
- Wee1 degradation (Wee1 [2]; MOLT4 cells): did not degrade Wee1

SMILES: C=CCn1c(=O)c2cnc(Nc3ccc(N4CCN(CCCNc5cccc6c5C(=O)N(C5CCC(=O)NC5=O)C6=O)CC4)cc3)nc2n1-c1cccc(C(C)(C)O)n1 (stereo not shown) [Compound 13, 4-((3-(4-(4-((2-allyl-1-(6-(2-hydroxypropan-2-yl)pyridin-2-yl)-3-oxo-2,3-dihydro-1H-pyrazolo[3,4-d]pyrimidin-6-yl)amino)phenyl)piperazin-1-yl)propyl)amino)-2-(2,6-dioxopiperidin-3-yl)isoindoline-1,3-dione]
- IC50 (PLK1): 102 nM
- Wee1 degradation in CRBN−/− cells (Wee1 [1]; MOLT4 CRBN−/− cells): rescued
- Wee1 degradation (Wee1 [1]): degraded Wee1
- percent Wee1 degradation at 1 µM (Wee1 [1]): > 50%
- Time to complete Wee1 degradation (Wee1 [2]; 100 nM, MOLT4 cells): ≤ 3 h
- Wee1 degradation achieved within 30 min (Wee1 [2]; [3]): over 50%
- Effect on Wee1 abundance in CRBN−/− cells (Wee1 [2]; CRBN−/− MOLT4 cells, 5 hours): no effect on Wee1 abundance
- Wee1 degradation (Wee1 [2]; MOLT4 cells): degraded Wee1
- Concentration giving maximal (sufficient) Wee1 degradation (Wee1 [2]; MOLT4 cells, 5-hr treatment): 100 nM
- Concentration at which hook effect is apparent (Wee1 [2]; parental MOLT4 cells, 5 hours): 10 µM
- Duration of sustained loss of Wee1 (Wee1 [2]; single 100 nM treatment, MOLT4 cells): at least 48 hrs
